Here are results for one compound from ChEMBL document CHEMBL1201862, “PubChem BioAssay data set” (2004).

Calls of active or inactive are those of the source.

Assay [1] has as its target T1, Intestinal-type alkaline phosphatase (Homo sapiens, UniProt P09923). As to the kind of experiment: human IAP activators, dose response, biochemical, luminescent, uHTS hits, set 2 (AID 488817).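 Also: potency of activators that raise enzyme activity.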 It counts as functional.
Assay [2] concerns the target Intestinal-type alkaline phosphatase (Mus musculus, UniProt P24822). As to the kind of experiment: PubChem AID 488874. It is filed as functional.
In assay [3] the target is T2, Alkaline phosphatase, tissue-nonspecific isozyme (Homo sapiens, UniProt P05186).
T2 sequence (P05186 whole entry): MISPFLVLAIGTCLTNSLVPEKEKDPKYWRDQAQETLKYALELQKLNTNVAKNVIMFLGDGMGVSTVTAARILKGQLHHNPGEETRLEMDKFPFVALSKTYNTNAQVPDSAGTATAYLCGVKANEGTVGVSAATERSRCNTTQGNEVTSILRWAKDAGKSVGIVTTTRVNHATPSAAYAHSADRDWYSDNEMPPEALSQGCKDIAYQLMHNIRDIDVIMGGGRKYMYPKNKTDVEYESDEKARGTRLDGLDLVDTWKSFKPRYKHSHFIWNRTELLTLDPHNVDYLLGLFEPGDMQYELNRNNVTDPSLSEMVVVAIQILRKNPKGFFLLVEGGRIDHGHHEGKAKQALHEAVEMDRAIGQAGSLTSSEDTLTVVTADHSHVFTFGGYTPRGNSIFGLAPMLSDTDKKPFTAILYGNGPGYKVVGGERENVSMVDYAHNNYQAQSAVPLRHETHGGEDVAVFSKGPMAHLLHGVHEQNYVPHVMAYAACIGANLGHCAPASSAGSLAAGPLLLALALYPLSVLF
As to the kind of experiment: TNAP enzyme activators, dose response, selectivity assay for human IAP activator project, biochemical, TNAP isozyme, human IAP uHTS hits (AID 488886).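 Also: potency of compounds raising TNAP activity as a selectivity check on IAP activators.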 It is filed as functional.

For assay [4], the target named is T1, Intestinal-type alkaline phosphatase. As to the kind of experiment: human intestinal alkaline phosphatase activators, dose response, biochemical, luminescence, uHTS hits (AID 463120). It counts as functional.
The next assay concerns H9c2. The assay can be described thus: cells. It is filed as functional, cell-based. The following applies: Rattus norvegicus, H9c2, Myocardium.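 Also: confirmatory concentration-response retest of ultra-high-throughput screening hits for modulation of myocardial damage; cell death induced by hydrogen peroxide oxidative stress; compound pretreatment for 60 min then peroxide exposure for 2 h; potency is for protecting the cells against peroxide damage rather than for killing them.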

T1 sequence (P09923 whole entry): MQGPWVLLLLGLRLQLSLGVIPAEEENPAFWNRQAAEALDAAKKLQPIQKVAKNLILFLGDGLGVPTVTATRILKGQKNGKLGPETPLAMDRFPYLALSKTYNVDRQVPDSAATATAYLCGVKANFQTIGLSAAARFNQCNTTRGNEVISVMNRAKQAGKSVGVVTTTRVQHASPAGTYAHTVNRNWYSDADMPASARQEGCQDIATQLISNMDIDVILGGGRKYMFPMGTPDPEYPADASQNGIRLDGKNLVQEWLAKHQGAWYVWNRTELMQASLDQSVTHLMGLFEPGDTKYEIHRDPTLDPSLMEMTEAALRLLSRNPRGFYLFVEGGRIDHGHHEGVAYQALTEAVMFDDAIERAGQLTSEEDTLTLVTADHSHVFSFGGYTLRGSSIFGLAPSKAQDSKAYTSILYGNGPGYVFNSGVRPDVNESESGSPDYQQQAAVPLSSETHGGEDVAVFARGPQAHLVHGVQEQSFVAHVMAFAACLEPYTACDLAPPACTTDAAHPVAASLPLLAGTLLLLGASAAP
Sequence of Intestinal-type alkaline phosphatase (Mus musculus, UniProt P24822) (P24822 whole entry): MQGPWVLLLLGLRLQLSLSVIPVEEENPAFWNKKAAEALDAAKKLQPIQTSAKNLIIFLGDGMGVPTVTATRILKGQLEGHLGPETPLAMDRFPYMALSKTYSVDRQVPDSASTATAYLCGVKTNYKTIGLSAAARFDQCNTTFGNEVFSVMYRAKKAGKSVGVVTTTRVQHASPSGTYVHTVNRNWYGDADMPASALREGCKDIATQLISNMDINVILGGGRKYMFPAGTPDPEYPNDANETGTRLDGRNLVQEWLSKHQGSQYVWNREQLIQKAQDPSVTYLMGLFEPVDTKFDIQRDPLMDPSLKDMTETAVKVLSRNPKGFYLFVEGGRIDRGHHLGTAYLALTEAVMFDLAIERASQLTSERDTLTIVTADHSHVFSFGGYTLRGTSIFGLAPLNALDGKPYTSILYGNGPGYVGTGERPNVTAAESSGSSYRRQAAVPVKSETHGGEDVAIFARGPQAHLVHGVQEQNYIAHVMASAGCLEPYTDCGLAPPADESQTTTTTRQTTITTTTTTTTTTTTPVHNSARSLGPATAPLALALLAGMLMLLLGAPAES

Consider `CCOCCCNC(=O)CCC(=O)NNc1nc2ccccc2c2nc(-c3ccccc3)nn12`, for which the EC50 is 15.2 µM (active) in assay [1], 17.7 µM (active) in assay [3] and 12.6 µM (active) in assay [4]. The IC50 in assay [2] was 29.6 µM (active); with H9c2 it was > 79 µM (inactive).
